Molecular target: Factor IXa (Homo sapiens, UniProt P00740)
Assay: Determination of inhibitory activity against Factor IXa (FIXa Low Enzyme; cleavage of fluorescent peptide CH3SO2-D-CHG-Gly-Arg-AFC)
Format: biochemical
Conditions: fluorogenic peptide substrate CH3SO2-D-CHG-Gly-Arg-AFC.AcOH; excitation 405, emission 510
Method: Determination of Inhibitory Activity Against Factor IXa
Formation of a clot to stem bleeding at a site of blood vessel injury involves the coordinated activity of a group of plasma proteins that initiate and propagate fibrin formation and subsequently protect fibrin from premature degradation. Factor IX is a key component of the plasma system that forms a fibrin clot at a site of vascular injury. The activity of Factor IXa is measured by monitoring the cleavage of the fluorescent peptide, CH3SO2-D-CHG-Gly-Arg-AFC.AcOH (“CHG” is cyclohexyl-glycine and “AFC” is trifluoro aminomethyl coumarin). Factor IXa cleaves the […] bond between Arg and AFC, thereby releasing the AFC fluorophore. The free AFC can be detected with a fluorescence detector at an excitation wavelength of 405 nm and emission wavelength of 510 nm.

Factor IXa, sequence (P00740 227-461 limits assumed): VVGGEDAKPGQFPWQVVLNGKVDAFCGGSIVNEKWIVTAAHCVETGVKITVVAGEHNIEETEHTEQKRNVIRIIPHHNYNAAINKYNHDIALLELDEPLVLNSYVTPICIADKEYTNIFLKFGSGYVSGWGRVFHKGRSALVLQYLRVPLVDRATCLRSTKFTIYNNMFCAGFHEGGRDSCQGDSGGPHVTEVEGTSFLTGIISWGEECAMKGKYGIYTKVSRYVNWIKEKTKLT
Factor IXa, sequence (P00740 47-191 partner limits assumed): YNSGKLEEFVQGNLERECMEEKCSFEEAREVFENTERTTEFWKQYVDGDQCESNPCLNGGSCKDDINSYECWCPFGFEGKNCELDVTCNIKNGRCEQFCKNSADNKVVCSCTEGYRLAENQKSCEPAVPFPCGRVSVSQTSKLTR

| FIXa Low Enzyme [nM] | Compound |
| --- | --- |
| 577.9 | C[C@](O)(c1nc(=O)c2c(ccc3c(N)nsc32)[nH]1)[C@H]1OCCN(c2cccc(C(F)(F)F)n2)C1=O [Example 3, (R)-2-((S)-1-(3-Amino-9-oxo-6,9-dihydroisothiazolo[5,4-f]quinazolin-7-yl)-1-hydroxyethyl)-4-(6-(trifluoromethyl)pyridin-2-yl)morpholin-3-one] |
| 352.7 | CC(C)(O)c1cccc(N2CCO[C@](C)([C@@H](O)c3nc(=O)c4c(ccc5c(N)nsc54)[nH]3)C2=O)n1 [Example 4, (R)-2-((S)-(3-Amino-9-oxo-6,9-dihydroisothiazolo[5,4-f]quinazolin-7-yl)(hydroxy)methyl)-4-(6-(2-hydroxypropan-2-yl)pyridin-2-yl)-2-methylmorpholin-3-one] |
| 102.1 | C[C@]1([C@@H](O)c2nc(=O)c3c(ccc4c(N)nsc43)[nH]2)OCCN(c2ccn(-c3ccc(=O)n(C(F)F)c3)n2)C1=O [Example 1, (R)-2-((S)-(3-Amino-9-oxo-6,9-dihydroisothiazolo[5,4-f]quinazolin-7-yl)(hydroxy)methyl)-4-(1-(1-(difluoromethyl)-6-oxo-1,6-dihydropyridin-3-yl)-1H-pyrazol-3-yl)-2-methylmorpholin-3-one] |
| 8.597 | C[C@]1([C@@H](O)c2nc(=O)c3c(ccc4c(N)nsc43)[nH]2)OCCN(c2ccn(-c3ccnnc3)n2)C1=O [Example 2, (R)-2-((S)-(3-Amino-9-oxo-6,9-dihydroisothiazolo[5,4-f]quinazolin-7-yl)(hydroxy)methyl)-2-methyl-4-(1-(pyridazin-4-yl)-1H-pyrazol-3-yl)morpholin-3-one] |

— patent US9914727B2, “Factor IXa inhibitors” (Merck Sharp & Dohme Corp., priority 2012, dated 2018)
